Experimental data: PubChem BioAssay (NCI)
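Briefly, cells in 96-well plates were exposed to five compound concentrations for 48 h, and endpoints were estimated by linear interpolation. GI50 = concentration required for 50% inhibition of growth. The concentration for full growth arrest is given as TGI.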

Legend:
Assay in all cases: NCI anticancer screen, dose series, 48 h
OVCAR-8 ovarian = system: OVCAR-8 ovarian
SN12C renal = system: SN12C renal
786-0 renal = system: 786-0 renal
BT-549 breast = system: BT-549 breast
TK-10 renal = system: TK-10 renal
SK-MEL-2 melanoma = system: SK-MEL-2 melanoma
SK-MEL-28 melanoma = system: SK-MEL-28 melanoma
MDA-MB-435 = system: MDA-MB-435
SR leukemia = system: SR leukemia
COLO 205 colon = system: COLO 205 colon
SK-OV-3 ovarian = system: SK-OV-3 ovarian
HT29 colon = system: HT29 colon
NCI-H522 lung = system: NCI-H522 lung
OVCAR-4 ovarian = system: OVCAR-4 ovarian
SNB-75 CNS = system: SNB-75 CNS
NCI/ADR-RES ovarian = system: NCI/ADR-RES ovarian
HOP-92 NSCLC = system: HOP-92 NSCLC
SF-539 CNS = system: SF-539 CNS
MOLT-4 leukemia = system: MOLT-4 leukemia
UACC-62 melanoma = system: UACC-62 melanoma
RXF 393 renal = system: RXF 393 renal
IGROV1 ovarian = system: IGROV1 ovarian
DU-145 prostate = system: DU-145 prostate
RPMI-8226 leukemia = system: RPMI-8226 leukemia
HCT-116 colon = system: HCT-116 colon
UO-31 renal = system: UO-31 renal
NCI-H226 lung = system: NCI-H226 lung

Compound `CCc1ccc(SC2c3ccc(N(CC)CC)cc3Oc3nc(N)c(C#N)c(N)c32)cc1` (centres undefined) has a GI50 (OVCAR-8 ovarian) of 1.71 µM, a TGI (OVCAR-8 ovarian) of 3.13 µM and a GI50 (SN12C renal) of 1.68 µM. It also gave a TGI (SN12C renal) of 3.13 µM, a GI50 (786-0 renal) of 1.74 µM and a TGI (786-0 renal) of 3.17 µM. It also gave a GI50 (BT-549 breast) of 1.3 µM, a TGI (BT-549 breast) of 2.59 µM and a GI50 (TK-10 renal) of 2.75 µM. The TGI (TK-10 renal) was 4.26 µM, the GI50 (SK-MEL-2 melanoma) was 1.74 µM and the TGI (SK-MEL-2 melanoma) was 3.17 µM. It also gave a GI50 (SK-MEL-28 melanoma) of 1.89 µM, a TGI (SK-MEL-28 melanoma) of 3.31 µM and a GI50 (MDA-MB-435) of 1.68 µM. The TGI (MDA-MB-435) was 3.1 µM, the GI50 (SR leukemia) was 0.482 µM and the TGI (SR leukemia) was over 100 µM. The GI50 (COLO 205 colon) was 1.92 µM, the TGI (COLO 205 colon) was 3.51 µM and the GI50 (SK-OV-3 ovarian) was 1.89 µM. It also gave a TGI (SK-OV-3 ovarian) of 3.34 µM, a GI50 (HT29 colon) of 2.03 µM and a TGI (HT29 colon) of 3.76 µM. The GI50 (NCI-H522 lung) was 1.78 µM, the TGI (NCI-H522 lung) was 3.28 µM and the GI50 (OVCAR-4 ovarian) was 1.7 µM. It also gave a TGI (OVCAR-4 ovarian) of 3.09 µM, a GI50 (SNB-75 CNS) of 1.5 µM and a TGI (SNB-75 CNS) of 2.83 µM. For the same compound, the GI50 (NCI/ADR-RES ovarian) was 2.09 µM, the TGI (NCI/ADR-RES ovarian) was 4.96 µM and the GI50 (HOP-92 NSCLC) was 1.48 µM. For the same compound, the TGI (HOP-92 NSCLC) was 2.84 µM, the GI50 (SF-539 CNS) was 1.66 µM and the TGI (SF-539 CNS) was 3.05 µM. For the same compound, the GI50 (MOLT-4 leukemia) was 2.19 µM, the TGI (MOLT-4 leukemia) was over 100 µM and the GI50 (UACC-62 melanoma) was 1.7 µM. The TGI (UACC-62 melanoma) was 3.13 µM, the GI50 (RXF 393 renal) was 1.58 µM and the TGI (RXF 393 renal) was 2.96 µM. For the same compound, the GI50 (IGROV1 ovarian) was 1.44 µM, the TGI (IGROV1 ovarian) was 2.89 µM and the GI50 (DU-145 prostate) was 1.86 µM. It also gave a TGI (DU-145 prostate) of 3.26 µM, a GI50 (RPMI-8226 leukemia) of 2.18 µM and a TGI (RPMI-8226 leukemia) of 6.08 µM. It also gave a GI50 (HCT-116 colon) of 1.13 µM, a TGI (HCT-116 colon) of 2.49 µM and a GI50 (UO-31 renal) of 1.45 µM. For the same compound, the TGI (UO-31 renal) was 2.76 µM, the GI50 (NCI-H226 lung) was 2.01 µM and the TGI (NCI-H226 lung) was 4.52 µM.
